Experimental data from patent US20150225377A1, “VEGFR3 INHIBITORS” (CANCER THERAPEUTICS CRC PTY LIMITED, priority 2012, published 2015).

target: T1, P397Y-FAK (Homo sapiens, UniProt Q05397); test: P397Y-FAK inhibition MSD platform cellular biomarker assay; assay type: cell-based; conditions: MDA-231-LNA cells, 1 hour compound
T1 construct: endogenous in cells; host or cells: MDA-231-LNA
Protocol: 96-well plates (cat#MA6000, Meso Scale Discovery) are coated with 30 μL/well of mouse monoclonal FAK antibody [63D5] (cat#ab72140, Abcam) pre-diluted in PBS to a concentration of 1 mg/mL. The plates are sealed with adhesive film and incubated for 16 hours at 4° C. The antibody is then flicked out of the plates and 150 μL of 3% [w/v] Blocker A (cat#R93AA-1, Meso Scale Discovery) is added. The plates are resealed with adhesive film and incubated at room temperature on a shaker set at medium speed for 2 hours. The plates are then washed three times with a solution containing 50 mM Tris-HCl pH 7.5, 0.15 M NaCl and 0.02% Tween-20, before cell lysate addition described below.
Cells are split 1:2 into T150 cell culture flasks 2 days prior to compound treatment. On the day prior to compound treatment, 200 μL media containing 20,000 cells is seeded into all wells of white, clear-bottom, TC treated, pclear, 96-well microtitre plates (cat#655098, Greiner Bio-One), and the plates are incubated at 37° C. and 5% CO2 for […]. 1 pUwell of compound is then added from dilution series prepared in DMSO. Negative control wells receive the same volume of DMSO without compounds, and positive control wells receive 2 μM of a control compound in the same volume of DMSO. Cells are treated for 1 hour at 37° C. and 5% CO2. The media/compounds are then flicked off and 55 pUwell of ice-cold complete lysis buffer is added. Complete lysis buffer is prepared by adding 1 tablet PhosSTOP complete phosphatase inhibitor (cat#04906837001, Roche) and 1 tablet Complete, Mini, EDTA-free, protease inhibitor (cat#04693159001, Roche) per 10 mL of incomplete lysis buffer (150 mM NaCl, 20 mM Tris-HCl pH 7.5, 1 mM EDTA, 1 mM EGTA, 1% Triton-X 100). Plates are incubated on ice for 30 minutes, with 30 seconds high speed plate shaking every 5 minutes. 40 μL/well of cell lysate is transferred to the coated, blocked and washed 96-well microtitre plates described above. The 96-well plates are sealed with adhesive film and incubated for 16 hours at 4° C. The plates are then washed three times with a solution containing 50 mM Tris-HCl pH 7.5, 0.15 M NaCl and 0.02% Tween-20 and tapped dry. 25 μL/well of detection solution (1% [w/v] Blocker A (cat#R93AA-1, Meso Scale Discovery) in 50 mM Tris-HCl pH 7.5, 0.15 M NaCl and 0.02% Tween-20, with 1:600 rabbit polyclonal FAK phospho Y397 antibody (cat#ab39967, Abcam), 1:1000 anti-rabbit sulfo-tag antibody (cat#R32AB-1 Meso Scale Discovery) and 1:40 reconstituted Blocker D-M (cat#D609-0100, Rockland Immunochemicals for Research)) is added, and the plates resealed with adhesive film and incubated for 1 hour at room temperature on a plate shaker set to medium speed. Plates are then washed three times with a solution containing 50 mM Tris-HCl pH 7.5, 0.15 M NaCl and 0.02% Tween-20 and tapped dry. 150 μL/well of Read Buffer T+Surfactant (cat#R92TC-1, Meso Scale Discovery) is then added, and pFAK-397 levels quantified using a Meso Scale Discovery SECTOR Imager 6000 instrument.

T1 sequence (Q05397 2-1052 limits assumed, stated change not applied): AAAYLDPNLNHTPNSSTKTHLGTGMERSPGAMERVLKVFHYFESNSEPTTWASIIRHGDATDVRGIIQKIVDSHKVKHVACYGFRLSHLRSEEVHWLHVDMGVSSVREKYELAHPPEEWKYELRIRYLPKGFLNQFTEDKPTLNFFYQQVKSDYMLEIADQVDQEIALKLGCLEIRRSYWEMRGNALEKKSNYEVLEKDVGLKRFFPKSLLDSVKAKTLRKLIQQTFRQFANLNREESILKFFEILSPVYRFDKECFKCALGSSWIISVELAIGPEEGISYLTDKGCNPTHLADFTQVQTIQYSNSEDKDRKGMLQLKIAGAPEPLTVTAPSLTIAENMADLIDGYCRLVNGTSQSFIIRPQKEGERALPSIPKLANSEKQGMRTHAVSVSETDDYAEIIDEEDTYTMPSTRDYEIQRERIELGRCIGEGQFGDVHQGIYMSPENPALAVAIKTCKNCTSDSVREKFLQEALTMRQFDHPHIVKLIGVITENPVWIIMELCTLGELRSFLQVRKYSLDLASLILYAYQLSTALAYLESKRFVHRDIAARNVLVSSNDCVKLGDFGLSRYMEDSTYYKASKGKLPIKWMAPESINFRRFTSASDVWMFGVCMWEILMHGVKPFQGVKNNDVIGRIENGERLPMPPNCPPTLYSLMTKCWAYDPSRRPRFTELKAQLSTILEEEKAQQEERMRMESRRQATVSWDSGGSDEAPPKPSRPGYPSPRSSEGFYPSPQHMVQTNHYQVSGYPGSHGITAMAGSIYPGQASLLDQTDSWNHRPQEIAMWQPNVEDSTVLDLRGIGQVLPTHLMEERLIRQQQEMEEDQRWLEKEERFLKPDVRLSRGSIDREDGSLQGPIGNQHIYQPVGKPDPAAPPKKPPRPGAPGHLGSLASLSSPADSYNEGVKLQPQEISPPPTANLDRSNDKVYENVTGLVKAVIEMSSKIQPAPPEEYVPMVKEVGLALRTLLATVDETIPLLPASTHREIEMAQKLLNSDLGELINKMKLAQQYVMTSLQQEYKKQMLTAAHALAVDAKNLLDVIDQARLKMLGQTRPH

IC50 [nM]	SMILES
> 2000	Cc1cnc(Nc2cnn(C)c2)nc1CCc1ccccc1CC(N)=O [Compound 28, 2-(2-(2-(5-methyl-2-((1-methyl-^1H-pyrazol-4-yl)amino)pyrimidin-4-yl)ethyl)phenyl)acetamide]
940	NC(=O)Cc1ccccc1CCc1nc(Nc2ccc(C(=O)N3CCNCC3)cc2)ncc1C(F)(F)F [Compound 6, 2-(2-(2-(2-((4-(piperazine-1-carbonyl)phenyl)amino)-5-(trifluoromethyl)pyrimidin-4-yl)ethyl)phenyl)acetamide]
> 2000	Cc1cnc(Nc2cnn(C3CCNCC3)c2)nc1CCc1ccccc1CC(N)=O [Compound 33, 2-(2-(2-(5-Methyl-2-((1-(piperidin-4-yl)-^1H-pyrazol-4-yl)amino)pyrimidin-4-yl)ethyl)phenyl)acetamide]
> 2000	Cc1cnc(Nc2ccc(C3CCNCC3)cc2)nc1CCc1ccccc1CC(N)=O [Compound 16, 2-(2-(2-(5-methyl-2-((4-(piperidin-4-yl)phenyl)amino)pyrimidin-4-yl)ethyl)phenyl)acetamide]
> 2000	Cc1cnc(Nc2ccc(C3CCN(C)CC3)nc2)nc1CCc1ccccc1CC(N)=O [Compound 5, 2-(2-(2-(5-methyl-2-((6-(1-methylpiperidin-4-yl)pyridin-3-yl)amino)pyrimidin-4-yl)ethyl)phenyl)acetamide]
25	CC(N)c1ccc(Nc2ncc(C(F)(F)F)c(CCc3ccccc3CC(N)=O)n2)cc1 (stereo not drawn) [Compound 18, 2-(2-(2-(2-(4-(1-aminoethyl)phenylamino)-5-(trifluoromethyl)pyrimidin-4-yl)ethyl)phenyl)acetamide]
30	Cc1cc(Nc2ncc(C(F)(F)F)c(CCc3ccccc3CC(N)=O)n2)ccc1C1CCN(C)CC1 [Compound 12, 2-(2-(2-(2-((3-methyl-4-(1-methylpiperidin-4-yl)phenyl)amino)-5-(trifluoromethyl)pyrimidin-4-yl)ethyl)phenyl)acetamide]
16	Cc1cc(Nc2ncc(C(F)(F)F)c(CCc3ccccc3CC(N)=O)n2)ccc1C1CCNCC1 [Compound 11, 2-(2-(2-(2-((3-methyl-4-(piperidin-4-yl)phenyl)amino)-5-(trifluoromethyl)pyrimidin-4-yl)ethyl)phenyl)acetamide]
62	NCc1ccc(Nc2ncc(C(F)(F)F)c(CCc3ccccc3CC(N)=O)n2)cc1 [Compound 3, 2-(2-(2-(2-((4-(Aminomethyl)phenyl)amino)-5-(trifluoromethyl)pyrimidin-4-yl)ethyl)phenyl)acetamide]

SMILES	IC50 [nM]
Cc1cnc(Nc2ccc(C3(N)COC3)cc2)nc1CCc1ccccc1CC(N)=O [Compound 31, 2-(2-(2-(2-(4-(3-aminooxetan-3-yl)phenylamino)-5-methylpyrimidin-4-yl)ethyl)phenyl)acetamide]	> 2000
Cc1cnc(Nc2cccnc2)nc1CCc1ccccc1CC(N)=O [Compound 24, 2-(2-(2-(5-methyl-2-(pyridin-3-ylamino)pyrimidin-4-yl)ethyl)phenyl)acetamide]	> 2000
Cc1cnc(Nc2ccc(OC3CCNCC3)cc2)nc1CCc1ccccc1CC(N)=O [Compound 26, 2-(2-(2-(5-methyl-2-((4-(piperidin-4-yloxy)phenyl)amino)pyrimidin-4-yl)ethyl)phenyl)acetamide]	> 2000
